Reference: patent US4122202A, “Amino-3H-isobenzofuranones N-substitutes and their therapeutic application” (Societe Cortial, priority 1975, dated 1978)
Where two headings read alike, the source gives them in different places.

Key:
[1] = Oral toxicity in mice (LDO, LD50); type: in vivo; conditions: mouse, in vivo; for LD50 at 336 h: gummy julep (No. 1 and 13 in Tween), 2 weeks observation
Description: (§1) This toxicity is estimated by the calculation of the lethal dose of 50 (LD 50) which determines the fatal dose of the substance for 50% of the animals tested. This determination was effected in accordance with a modification of the method by Litchfield and Wilcoxon (J. Pharmacol. Exp. Therap. 1949, 96, 99-113).
(§2) Swiss mice without specific pathogenic organisms were kept in air conditioned rooms 24 to 48 hours before the start of the tests. They were divided into batches of 5.male. and 5.female.. With the animals unfed for 24 hours, the substances were intragastically administered in suspension in 2% Tween 80 or in 6% gummy julep in a volume equivalent to 0.1 ml per 10 g of the weight of the animal.
(§3) They remained under observation for two weeks before being killed and subjected to an autopsy.
(§4) All products were administered in gummy julep except No. 1 and No. 13 which were administered in Tween. The analgesic activity were determined in mice by utilizing as a nociceptive agent, phenylbenzoquinone (PBQ) (modification of the method by Siegmund and co-workers Proc. Soc. Exp. Biol. Med. 1957, 95, 729-31). The process consists of seeking a possible protection for the mouse vis-a-vis abdominal twisting and stretching of the hind legs induced by the parental injection of PBQ. 25 minutes after having orally administered the products to be tested in suspension in 2% Tween 80 or in 6% gummy julep, the PBQ solution was injected and the mice were observed after 5 minutes during the following 5 minutes. For certain products, AD 50 is presented as a measure of activity.

mice [2] = experiment: Oral toxicity in mice (LDO, LD50); type: in vivo; conditions: gummy julep (No. 1 and 13 in Tween), 2 weeks observation
Description: as §1, §2, §3, §4

mice [3] = experiment: Analgesic activity: protection against abdominal twisting induced by phenylbenzoquinone (PBQ); type: in vivo; conditions: for ED50: Mus musculus, oral, read-out: AD 50 (the source's name)
Description: as §4, with “activity. […]” for “activity.”

rats = experiment: Anti-inflammatory activity: carragenic test (carragenine-induced edema of the hind leg); type: in vivo, male rats; conditions: for ED50: oral
Description: All products were administered in gummy julep except No. 1 and No. 13 which were administered in suspension in Tween. The anti-inflammatory activity was determined by the carragenic test with male rats. Inflammation was induced by the injection of 0.1 ml of a 0.5% suspension of carragenine in a physiological serum into the muscular fasciculus of the metatarsal region of the hind leg of the animal. The substance to be tested was orally administered simultaneously with the carragenine. The edema was measured by phethysmography 1, 2, 3, 4, 5 and 6 hours after the administration of the carragenine.
**50 mg/kg No. 13 which were administered in suspension in Tween.

[4] = Rattus norvegicus, 2H, read-out: ED 50
[5] = Rattus norvegicus, 4H, read-out: ED 50

Compound | LDO (maximum dose which did not lead to any mortality) (mice [2]) | % activity (mice [3]; 200 mg/kg oral) [%] | ED50 (mice [3]) [mg/kg] | % activity (inhibition of edema) (rats; 400 mg/kg oral, 4H) [%] | LD50 at 336 h [1] [mg/kg] | % activity (inhibition of edema) (rats; 300 mg/kg oral, 2H) [%] | % activity (inhibition of edema) (rats; 300 mg/kg oral, 4H) [%] | % activity (inhibition of edema) (rats; 150 mg/kg oral, 2H) [%] | % activity (inhibition of edema) (rats; 150 mg/kg oral, 4H) [%] | also measured
CC1(C)Oc2ccc(NC3OC(=O)c4ccccc43)cc2O1 (stereo not shown) [Product 7] | ~ 1000 mg/kg | 81 | 80 | 25 | – | – | – | – | – | mortality at 336 h ([1]; at 2000 mg/kg, read-out: deaths (LD50 column)): 70%; % activity (inhibition of edema) (rats; 200 mg/kg oral, 2H): 19%; % activity (inhibition of edema) (rats; 200 mg/kg oral, 4H): 20%; % activity (inhibition of edema) (rats; 400 mg/kg oral, 2H): 23%
CCCC1(CC)Oc2ccc(NC3OC(=O)c4ccccc43)cc2O1 (stereo not shown) [Product 6] | 1000 to 2000 mg/kg | 25 | 420 | 3 | ≥ 2000 | – | – | – | – | % activity (inhibition of edema) (rats; 200 mg/kg oral, 4H): 22%
O=C1OC(Nc2ccc3c(c2)COCO3)c2ccccc21 (stereo not shown) [Product 21] | > 2000 mg/kg | 61 | 275 | – | – | 44 | 43 | – | – | ED50 (rats; [4]): 400 mg/kg; ED50 (rats; [5]): 500 mg/kg
CC(=O)OCC1COc2cc(NC3OC(=O)c4ccccc43)ccc2O1 (stereo not shown) [Product 20] | > 2000 mg/kg | 13 | 550 | – | – | 10 | 13 | 16 | 3 | –
CCN(c1ccc2c(c1)OCO2)C1OC(=O)c2ccccc21 (stereo not shown) [Product 12] | – | – | 45 | – | ~590 | – | – | – | – | % activity (mice [3]; 50 mg/kg oral): 61%; % activity (inhibition of edema) (rats; 25 mg/kg (footnote *) oral, 2H): 33%; % activity (inhibition of edema) (rats; 25 mg/kg (footnote *) oral, 4H): 17%; % activity (inhibition of edema) (rats; 50 mg/kg oral, 2H): 43%; % activity (inhibition of edema) (rats; 50 mg/kg oral, 4H): 28%
CC(=O)OCC1COc2ccc(NC3OC(=O)c4ccccc43)cc2O1 (stereo not shown) [Product 19] | > 2000 mg/kg | – | 500 | – | – | 26 | 27 | 21 | 23 | % activity (mice [3]; 300 mg/kg oral): 21%
COc1ccc2c(c1OC)C(=O)OC2Nc1ccc2c(c1)OCO2 (stereo not shown) [Product 8] | 750 to 1000 mg/kg | 54 | 180 | 48 | ~1000 | – | – | – | – | % activity (inhibition of edema) (rats; 200 mg/kg oral, 2H): 68%; % activity (inhibition of edema) (rats; 200 mg/kg oral, 4H): 66%; % activity (inhibition of edema) (rats; 400 mg/kg oral, 2H): 74%; ED50 (rats; [4]): 180 mg/kg; ED50 (rats; [5]): 230 mg/kg
CCC1(CC)Oc2ccc(NC3OC(=O)c4ccccc43)cc2O1 (stereo not shown) [Product 2] | ~ 1500 mg/kg | 29 | – | 20 | ~2000 | – | – | – | – | –
COC(=O)c1cc2c(cc1NC1OC(=O)c3ccccc31)OCO2 (stereo not shown) [Product 16] | > 2000 mg/kg | – | – | – | – | – | – | 12 | 10 | % activity (mice [3]; 100 mg/kg oral): 33%
COc1ccc2c(c1OC)C(=O)OC2Nc1ccc2c(c1)OCCO2 (stereo not shown) [Product 14] | > 2000 mg/kg | 73 | 150 | 63 | – | – | – | – | – | % activity (inhibition of edema) (rats; 200 mg/kg oral, 2H): 63%; % activity (inhibition of edema) (rats; 200 mg/kg oral, 4H): 33%; % activity (inhibition of edema) (rats; 400 mg/kg oral, 2H): 79%; ED50 (rats; [4]): 175 mg/kg; ED50 (rats; [5]): 260 mg/kg
O=C1OC(Nc2ccc3c(c2)OCCO3)c2ccccc21 (stereo not shown) [Product 13] | ≥ 1000 mg/kg | – | 100 | – | ≥ 3000 | 76 | 55 | 77 | 50 | % activity (mice [3]; 150 mg/kg oral): 73%; ED50 (rats; [4]): 230 mg/kg; ED50 (rats; [5]): 210 mg/kg
O=C(O)c1cc2c(cc1NC1OC(=O)c3ccccc31)OCO2 (stereo not shown) [Product 15] | > 2000 mg/kg | 26 | – | – | – | 15 | 4 | 15 | 21 | –
N(2,2-dimethyl benzodioxol-1,3 yl-5) 3-amino 3H-isobenzofuranone-1 [Product 7] | – | 86 | – | 68 | – | – | – | 68 | 43 | % activity (inhibition of edema) (rats; 400 mg/kg oral, 2H): 72%; ED50 (rats; 2H): 75 mg/kg; ED50 (rats; 4H): 220 mg/kg
Cc1cc(NC2OC(=O)c3ccccc32)c(C)c2c1OCOC2 (stereo not shown) [Product 22] | > 2000 mg/kg | 38 | 260 | – | – | – | – | 35 | 31 | –
O=C1OC(Nc2ccc3c(c2)OC(CO)CO3)c2ccccc21 (stereo not shown) [Product 18] | > 2000 mg/kg | 44 | 260 | – | – | 22 | 0 | 16 | 6 | –
CCCC1(CCC)Oc2ccc(NC3OC(=O)c4ccccc43)cc2O1 (stereo not shown) [Product 4] | – | 20 | – | 13 | ~2000 | – | – | – | – | % activity (inhibition of edema) (rats; 200 mg/kg oral, 4H): 23%
O=C1OC(Nc2ccc3c(c2)OCC(CO)O3)c2ccccc21 (stereo not shown) [Product 17] | > 2000 mg/kg | 28 | 420 | – | – | 29 | 8 | 27 | 17 | –
